This is an account of results in patent EP3154958B1, “PHOSPHATIDYLINOSITOL 3-KINASE INHIBITORS” (Gilead Sciences, Inc., priority 2014, dated 2015).

As usually defined, the IC50 is the concentration that gives 50% inhibition.

Each structure is given as a SMILES string. Bounds are passed on as bounds.

Common to all, as to type: biochemical
The target in test [1] is T1, PI3Kβ (Homo sapiens, UniProt P42338).
T1 construct: made in house
The test is described as follows: TR-FRET enzymatic activity assay, PI3Kβ. As to conditions: recombinant heterodimeric PI3Kβ 25-50 pM, 2× Km ATP, 30 minutes at 25°C. In short, it runs like this: (§1)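 Compounds were profiled per isoform in a biochemical kinase reaction, with activity detected by time-resolved fluorescence resonance energy transfer.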
(Time-resolved FRET reads energy transfer from a long-lived donor to a nearby acceptor.)

Test [2] deals with T2, PI3Kδ (Homo sapiens, UniProt O00329).
T2 construct: made in house
The test is described as follows: TR-FRET enzymatic activity assay, PI3Kδ. The following applies: recombinant heterodimeric PI3Kδ 25-50 pM, 2× Km ATP, 30 minutes at 25°C. The gist of the method:
as §1

Test [3] concerns the target T3, PI3Kγ (Homo sapiens, UniProt P48736).
T3 construct: made in house
The test is described as follows: TR-FRET enzymatic activity assay, PI3Kγ. The following applies: recombinant heterodimeric PI3Kγ 2 nM, 2× Km ATP, 30 minutes at 25°C. In short, it runs like this:
as §1

T3 sequence (P48736 whole entry): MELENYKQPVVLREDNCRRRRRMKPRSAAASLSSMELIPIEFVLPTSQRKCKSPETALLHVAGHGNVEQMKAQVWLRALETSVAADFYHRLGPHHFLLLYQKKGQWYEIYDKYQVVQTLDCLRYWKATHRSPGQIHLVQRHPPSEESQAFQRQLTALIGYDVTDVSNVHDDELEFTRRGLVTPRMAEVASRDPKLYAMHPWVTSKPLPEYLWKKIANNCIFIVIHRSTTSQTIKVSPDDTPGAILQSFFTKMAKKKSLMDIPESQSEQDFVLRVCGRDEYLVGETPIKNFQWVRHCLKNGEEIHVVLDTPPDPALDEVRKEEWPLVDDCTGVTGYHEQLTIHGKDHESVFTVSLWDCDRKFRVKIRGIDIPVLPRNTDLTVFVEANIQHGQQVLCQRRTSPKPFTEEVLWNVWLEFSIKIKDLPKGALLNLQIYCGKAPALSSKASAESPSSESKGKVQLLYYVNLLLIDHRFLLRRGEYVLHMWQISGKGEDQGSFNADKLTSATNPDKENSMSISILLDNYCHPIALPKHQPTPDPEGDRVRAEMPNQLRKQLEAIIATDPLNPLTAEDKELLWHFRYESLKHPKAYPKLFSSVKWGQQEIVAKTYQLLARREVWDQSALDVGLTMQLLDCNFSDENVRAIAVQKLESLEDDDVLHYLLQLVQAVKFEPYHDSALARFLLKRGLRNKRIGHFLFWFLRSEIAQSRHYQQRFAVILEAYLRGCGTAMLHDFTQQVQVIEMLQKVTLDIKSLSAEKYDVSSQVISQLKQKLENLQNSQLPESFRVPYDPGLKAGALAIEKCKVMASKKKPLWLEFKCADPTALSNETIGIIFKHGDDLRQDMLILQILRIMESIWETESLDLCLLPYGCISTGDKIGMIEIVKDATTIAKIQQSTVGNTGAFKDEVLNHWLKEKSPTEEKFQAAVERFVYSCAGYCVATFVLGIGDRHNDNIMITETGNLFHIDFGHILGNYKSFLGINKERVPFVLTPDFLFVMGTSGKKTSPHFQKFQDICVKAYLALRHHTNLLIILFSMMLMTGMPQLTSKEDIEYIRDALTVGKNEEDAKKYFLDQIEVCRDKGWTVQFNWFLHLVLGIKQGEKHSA
T3 sequence (Q8WYR1 whole entry partner): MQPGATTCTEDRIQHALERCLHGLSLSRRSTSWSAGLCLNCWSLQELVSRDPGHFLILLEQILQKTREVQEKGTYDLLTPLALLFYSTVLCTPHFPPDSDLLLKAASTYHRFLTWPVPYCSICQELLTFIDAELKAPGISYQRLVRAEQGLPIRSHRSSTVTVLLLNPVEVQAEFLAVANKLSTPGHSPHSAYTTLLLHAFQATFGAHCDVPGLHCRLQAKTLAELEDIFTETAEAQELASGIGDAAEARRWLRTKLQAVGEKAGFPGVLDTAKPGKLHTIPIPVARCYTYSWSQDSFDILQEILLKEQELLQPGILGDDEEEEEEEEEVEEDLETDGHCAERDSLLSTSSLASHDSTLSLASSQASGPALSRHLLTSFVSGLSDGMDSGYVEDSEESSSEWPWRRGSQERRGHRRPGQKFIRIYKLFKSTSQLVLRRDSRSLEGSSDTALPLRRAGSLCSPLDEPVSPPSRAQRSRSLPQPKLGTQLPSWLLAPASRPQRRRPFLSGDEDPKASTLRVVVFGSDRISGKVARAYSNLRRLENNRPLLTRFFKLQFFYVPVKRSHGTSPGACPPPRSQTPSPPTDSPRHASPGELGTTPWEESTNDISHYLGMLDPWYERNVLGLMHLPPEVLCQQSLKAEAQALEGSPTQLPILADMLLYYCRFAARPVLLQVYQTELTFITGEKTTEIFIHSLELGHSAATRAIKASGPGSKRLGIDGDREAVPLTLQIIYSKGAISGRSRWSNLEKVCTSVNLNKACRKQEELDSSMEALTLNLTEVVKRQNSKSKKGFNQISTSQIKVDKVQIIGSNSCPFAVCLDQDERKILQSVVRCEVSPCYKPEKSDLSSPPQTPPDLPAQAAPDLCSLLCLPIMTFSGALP
T2 sequence (O00329 whole entry): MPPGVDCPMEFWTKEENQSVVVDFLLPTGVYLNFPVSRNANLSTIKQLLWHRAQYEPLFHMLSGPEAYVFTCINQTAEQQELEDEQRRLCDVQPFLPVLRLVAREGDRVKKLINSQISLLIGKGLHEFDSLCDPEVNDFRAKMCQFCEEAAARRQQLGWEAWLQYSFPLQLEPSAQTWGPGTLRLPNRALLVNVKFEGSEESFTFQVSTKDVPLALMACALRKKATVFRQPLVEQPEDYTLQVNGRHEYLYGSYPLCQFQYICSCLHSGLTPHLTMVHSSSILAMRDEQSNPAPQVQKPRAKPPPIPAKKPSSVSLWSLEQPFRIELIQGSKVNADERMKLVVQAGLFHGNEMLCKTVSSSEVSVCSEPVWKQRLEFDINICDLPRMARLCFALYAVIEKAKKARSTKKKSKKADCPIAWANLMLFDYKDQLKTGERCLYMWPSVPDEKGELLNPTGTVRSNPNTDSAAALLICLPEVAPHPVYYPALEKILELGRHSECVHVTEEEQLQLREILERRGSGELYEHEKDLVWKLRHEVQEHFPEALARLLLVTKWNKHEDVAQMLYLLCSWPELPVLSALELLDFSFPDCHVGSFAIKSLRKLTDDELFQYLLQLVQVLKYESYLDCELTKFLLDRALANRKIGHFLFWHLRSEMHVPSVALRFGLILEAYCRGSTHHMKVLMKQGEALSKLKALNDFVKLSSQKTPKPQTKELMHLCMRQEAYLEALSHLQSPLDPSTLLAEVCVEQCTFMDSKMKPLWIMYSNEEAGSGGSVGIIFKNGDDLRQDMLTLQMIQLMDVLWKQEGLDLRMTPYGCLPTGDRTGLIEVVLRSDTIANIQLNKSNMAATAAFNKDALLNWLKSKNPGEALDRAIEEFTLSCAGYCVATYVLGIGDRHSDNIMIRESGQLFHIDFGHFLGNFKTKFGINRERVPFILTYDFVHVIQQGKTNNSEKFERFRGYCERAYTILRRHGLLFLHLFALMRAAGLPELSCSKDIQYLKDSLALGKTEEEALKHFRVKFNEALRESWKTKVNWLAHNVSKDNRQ
T2 sequence (P27986 whole entry partner): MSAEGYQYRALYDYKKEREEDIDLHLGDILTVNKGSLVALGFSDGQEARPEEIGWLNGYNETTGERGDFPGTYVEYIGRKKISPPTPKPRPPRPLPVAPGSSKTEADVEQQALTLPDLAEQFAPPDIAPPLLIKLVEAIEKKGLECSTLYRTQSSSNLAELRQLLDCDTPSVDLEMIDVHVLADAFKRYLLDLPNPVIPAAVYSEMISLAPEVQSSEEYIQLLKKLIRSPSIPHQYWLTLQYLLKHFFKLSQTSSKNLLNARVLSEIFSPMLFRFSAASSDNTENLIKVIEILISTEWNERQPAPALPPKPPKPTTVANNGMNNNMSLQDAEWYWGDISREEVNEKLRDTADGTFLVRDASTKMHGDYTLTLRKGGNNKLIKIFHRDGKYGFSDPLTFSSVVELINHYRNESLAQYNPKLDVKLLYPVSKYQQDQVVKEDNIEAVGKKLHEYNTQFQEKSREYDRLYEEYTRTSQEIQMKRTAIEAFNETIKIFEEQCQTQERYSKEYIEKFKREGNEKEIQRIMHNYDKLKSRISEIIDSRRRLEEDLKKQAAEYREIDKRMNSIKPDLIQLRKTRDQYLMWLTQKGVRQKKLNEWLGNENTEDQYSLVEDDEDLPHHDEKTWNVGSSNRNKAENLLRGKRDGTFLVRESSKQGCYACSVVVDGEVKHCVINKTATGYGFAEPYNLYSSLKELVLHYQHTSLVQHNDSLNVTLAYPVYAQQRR
T1 sequence (P42338 whole entry): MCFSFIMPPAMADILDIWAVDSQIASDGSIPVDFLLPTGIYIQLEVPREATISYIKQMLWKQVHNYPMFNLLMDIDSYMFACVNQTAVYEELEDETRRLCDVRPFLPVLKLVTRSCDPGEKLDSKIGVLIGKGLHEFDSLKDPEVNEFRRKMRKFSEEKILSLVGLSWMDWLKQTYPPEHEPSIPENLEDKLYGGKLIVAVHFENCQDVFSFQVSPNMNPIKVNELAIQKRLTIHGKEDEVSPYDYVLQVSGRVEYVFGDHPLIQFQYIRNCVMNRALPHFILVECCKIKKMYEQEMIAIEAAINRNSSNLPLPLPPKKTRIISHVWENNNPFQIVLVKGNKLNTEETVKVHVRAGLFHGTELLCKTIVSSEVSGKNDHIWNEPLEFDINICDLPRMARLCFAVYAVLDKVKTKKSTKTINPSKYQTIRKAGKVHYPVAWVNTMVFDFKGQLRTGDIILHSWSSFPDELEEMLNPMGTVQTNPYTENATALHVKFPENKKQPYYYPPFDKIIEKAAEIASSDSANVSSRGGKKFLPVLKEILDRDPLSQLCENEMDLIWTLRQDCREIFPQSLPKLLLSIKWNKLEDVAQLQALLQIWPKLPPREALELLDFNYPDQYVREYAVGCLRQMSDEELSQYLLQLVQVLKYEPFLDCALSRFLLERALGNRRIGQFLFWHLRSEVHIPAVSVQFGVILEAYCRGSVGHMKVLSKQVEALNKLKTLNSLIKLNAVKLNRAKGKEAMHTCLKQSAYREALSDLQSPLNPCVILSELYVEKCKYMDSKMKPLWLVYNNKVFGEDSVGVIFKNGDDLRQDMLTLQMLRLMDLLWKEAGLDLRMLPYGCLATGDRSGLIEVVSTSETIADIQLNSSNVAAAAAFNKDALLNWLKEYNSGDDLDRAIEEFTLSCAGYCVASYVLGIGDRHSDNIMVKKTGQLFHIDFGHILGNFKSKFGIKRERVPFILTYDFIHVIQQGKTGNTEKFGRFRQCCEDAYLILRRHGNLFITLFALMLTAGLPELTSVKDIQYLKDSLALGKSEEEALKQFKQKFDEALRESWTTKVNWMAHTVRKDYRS
T1 sequence (P27986 whole entry partner): as the sequence (P27986 whole entry partner) above

In the case of `C[C@H](Nc1nc(N)nc(N)c1Cl)c1nc2cccc(Cl)c2c(=O)n1N1CCNCC1` [Compound 72, (S)-5-chloro-2-(1-((2,6-diamino-5-chloropyrimidin-4-yl)amino)ethyl)-3-(piperazin-1-yl)quinazolin-4(3H)-one], the IC50 in test [1] was 28 nM; in test [2], 11 nM; in test [3], > 10 µM.
For `C[C@H](Nc1ncnc2cccnc12)c1nc2cccc(Cl)c2c(=O)n1N1CCNCC1` [Compound 73, (S)-5-chloro-3-(piperazin-1-yl)-2-(1-(pyrido[3,2-d]pyrimidin-4-ylamino)ethyl)quinazolin-4(3H)-one] the same measures were 19 nM, 8 nM and > 10 µM.
For `CC(C)C[C@H](Nc1ncnc(N)c1C#N)c1nc2cccc(Cl)c2c(=O)n1N1CCNCC1` [Compound 74, (S)-4-amino-6-((1-(5-chloro-4-oxo-3-(piperazin-1-yl)-3,4-dihydroquinazolin-2-yl)-3-methylbutyl)amino)pyrimidine-5-carbonitrile] the same measures were 570 nM, 32 nM and > 10 µM.
For `CC(C)C[C@H](Nc1nc(N)nc(N)c1C#N)c1nc2cccc(Cl)c2c(=O)n1N1CCNCC1` [Compound 75, (S)-2,4-diamino-6-((1-(5-chloro-4-oxo-3-(piperazin-1-yl)-3,4-dihydroquinazolin-2-yl)-3-methylbutyl)amino)pyrimidine-5-carbonitrile] the same measures were 37 nM, 15 nM and > 10 µM.
Regarding `C[C@H](Nc1ncnc(N)c1C#N)c1nc2c(Cl)ccc(Cl)c2c(=O)n1N1CCNCC1` [Compound 76, (S)-4-amino-6-((1-(5,8-dichloro-4-oxo-3-(piperazin-1-yl)-3,4-dihydroquinazolin-2-yl)ethyl)amino)pyrimidine-5-carbonitrile], the half-maximal inhibitory concentration (IC50) was 25 nM in test [1], 2 nM in test [2] and > 10 µM in test [3].
For `N#Cc1c(N)nc(N)nc1N[C@H](c1nc2cccc(Cl)c2c(=O)n1N1CCNCC1)C1CC1` [Compound 77, (S)-2,4-diamino-6-(((5-chloro-4-oxo-3-(piperazin-1-yl)-3,4-dihydroquinazolin-2-yl)(cyclopropyl)methyl)amino)pyrimidine-5-carbonitrile] the same measures were 1 nM, 1 nM and 2.9 µM.
For `O=c1c2c(Cl)cccc2nc([C@@H](Nc2ncnc3scnc23)C2CC2)n1N1CCNCC1` [Compound 78, (S)-5-chloro-2-(cyclopropyl(thiazolo[5,4-d]pyrimidin-7-ylamino)methyl)-3-(piperazin-1-yl)quinazolin-4(3H)-one] the same measures were 18 nM, 2 nM and > 10 µM.
For `CC[C@H](Nc1ncnc(N)c1C#N)c1nc2cccc(Cl)c2c(=O)n1N1CCNCC1` [Compound 79, (S)-4-amino-6-((1-(5-chloro-4-oxo-3-(piperazin-1-yl)-3,4-dihydroquinazolin-2-yl)propyl)amino)pyrimidine-5-carbonitrile] the same measures were 78 nM, 7 nM and > 10 µM.
Take `CC[C@H](Nc1ncnc2scnc12)c1nc2cccc(Cl)c2c(=O)n1N1CCNCC1` [Compound 80, (S)-5-chloro-3-(piperazin-1-yl)-2-(1-(thiazolo[5,4-d]pyrimidin-7-ylamino)propyl)quinazolin-4(3H)-one]: the concentration for half-maximal inhibition (IC50) is 25 nM in test [1], 4 nM in test [2] and > 10 µM in test [3].
For `C[C@H](Nc1ncnc2cccnc12)c1nc2cccc(Cl)c2c(=O)n1C1CCCNCC1` (stereo partly drawn) [Compound 81, 3-(azepan-4-yl)-5-chloro-2-((S)-1-(pyrido[3,2-d]pyrimidin-4-ylamino)ethyl)quinazolin-4(3H)-one] the same measures were 520 nM, 35 nM and > 10 µM.
For `C[C@H](Nc1ncnn2ccnc12)c1nc2cccc(Cl)c2c(=O)n1C1CCCNCC1` (stereo partly drawn) [Compound 82, 3-(azepan-4-yl)-5-chloro-2-((S)-1-(imidazo[2,1-f][1,2,4]triazin-4-ylamino)ethyl)quinazolin-4(3H)-one] the same measures were 480 nM, 22 nM and > 10 µM.
For `C[C@H](Nc1ncnc(N)c1C#N)c1nc2cccc(Cl)c2c(=O)n1C1CCCNC1` (stereo partly drawn) [Compound 83, 4-amino-6-(((1S)-1-(5-chloro-4-oxo-3-(piperidin-3-yl)-3,4-dihydroquinazolin-2-yl)ethyl)amino)pyrimidine-5-carbonitrile] the same measures were 270 nM, 8 nM and > 10 µM.
As to `C[C@H](Nc1ncnc(N)c1C#N)c1nc2cccc(Cl)c2c(=O)n1C1CCCNCC1` (stereo partly drawn) [Compound 84, 4-amino-6-(((1S)-1-(3-(azepan-4-yl)-5-chloro-4-oxo-3,4-dihydroquinazolin-2-yl)ethyl)amino)pyrimidine-5-carbonitrile], the concentration for half-maximal inhibition (IC50) in test [1] was 32 nM; in test [2], 2 nM; in test [3] it was > 10 µM.
For `C[C@H](Nc1ncnc(N)c1C#N)c1nc2cccc(Cl)c2c(=O)n1C1CCNC1` (stereo partly drawn) [Compound 85, 4-amino-6-(((1S)-1-(5-chloro-4-oxo-3-(pyrrolidin-3-yl)-3,4-dihydroquinazolin-2-yl)ethyl)amino)pyrimidine-5-carbonitrile] the same measures were 160 nM, 7 nM and > 10 µM.
On to `C[C@H](Nc1ncnc(N)c1C#N)c1nc2cccc(Cl)c2c(=O)n1C1CCNCC1` [Compound 86, (S)-4-amino-6-((1-(5-chloro-4-oxo-3-(piperidin-4-yl)-3,4-dihydroquinazolin-2-yl)ethyl)amino)pyrimidine-5-carbonitrile], for which the IC50 in test [1] was 83 nM; in test [2], 3 nM; in test [3], > 10 µM.
For `CC[C@H](Nc1nc(N)nc(N)c1C#N)c1nc2cccc(Cl)c2c(=O)n1N1CCN(Cc2ccc(C(F)(F)F)cc2)CC1` [Compound 87, (S)-2,4-diamino-6-((1-(5-chloro-4-oxo-3-(4-(4-(trifluoromethyl)benzyl)piperazin-1-yl)-3,4-dihydroquinazolin-2-yl)propyl)amino)pyrimidine-5-carbonitrile], the half-inhibitory concentration (IC50) in test [1] was 10000 nM; in test [2] it was 57 nM; in test [3] it was > 10 µM.
For `CC(C)N1CCN(n2c([C@H](C)Nc3nc(N)nc(N)c3C#N)nc3cccc(Cl)c3c2=O)CC1` [Compound 88, (S)-2,4-diamino-6-((1-(5-chloro-3-(4-isopropylpiperazin-1-yl)-4-oxo-3,4-dihydroquinazolin-2-yl)ethyl)amino)pyrimidine-5-carbonitrile] the same measures were 120 nM, 54 nM and 5.8 µM.
For `CC[C@H](Nc1nc(N)nc(C)c1C#N)c1nc2cccc(Cl)c2c(=O)n1N1CCN(Cc2ccc(C(F)(F)F)cc2)CC1` [Compound 89, (S)-2-amino-4-((1-(5-chloro-4-oxo-3-(4-(4-(trifluoromethyl)benzyl)piperazin-1-yl)-3,4-dihydroquinazolin-2-yl)propyl)amino)-6-methylpyrimidine-5-carbonitrile] the same measures were 4500 nM, 50 nM and > 10 µM.
With `CC[C@H](Nc1nc(N)nc(C)c1C#N)c1nc2cccc(Cl)c2c(=O)n1N1CCN(Cc2ccc(F)cc2)CC1` [Compound 90, (S)-2-amino-4-((1-(5-chloro-3-(4-(4-fluorobenzyl)piperazin-1-yl)-4-oxo-3,4-dihydroquinazolin-2-yl)propyl)amino)-6-methylpyrimidine-5-carbonitrile], the values for the IC50 in test [1], in test [2] and in test [3] were 52 nM, 23 nM and 2 µM, respectively.
For `CC[C@H](Nc1nc(N)nc(N)c1C#N)c1nc2cccc(Cl)c2c(=O)n1N1CCN(Cc2ccc(F)cc2)CC1` [Compound 91, (S)-2,4-diamino-6-((1-(5-chloro-3-(4-(4-fluorobenzyl)piperazin-1-yl)-4-oxo-3,4-dihydroquinazolin-2-yl)propyl)amino)pyrimidine-5-carbonitrile] the same measures were 59 nM, 22 nM and 0.93 µM.
On to `CC[C@H](Nc1nc(N)nc(N)c1C#N)c1nc2cccc(Cl)c2c(=O)n1N1CCN(Cc2ccc(OC)cc2)CC1` [Compound 92, (S)-2,4-diamino-6-((1-(5-chloro-3-(4-(4-methoxybenzyl)piperazin-1-yl)-4-oxo-3,4-dihydroquinazolin-2-yl)propyl)amino)pyrimidine-5-carbonitrile], for which the figures for the half-inhibitory concentration (IC50) in test [1], in test [2] and in test [3] were 41 nM, 27 nM and 1.4 µM, respectively.
For `N#Cc1c(N)nc(N)nc1N[C@H](c1nc2cccc(Cl)c2c(=O)n1N1CCN(Cc2ccccc2)CC1)C1CC1` [Compound 93, (S)-2,4-diamino-6-(((3-(4-benzylpiperazin-1-yl)-5-chloro-4-oxo-3,4-dihydroquinazolin-2-yl)(cyclopropyl)methyl)amino)pyrimidine-5-carbonitrile] the same measures were 48 nM, 18 nM and 1.3 µM.
Regarding `CC[C@H](Nc1nc(N)nc(N)c1C#N)c1nc2cccc(Cl)c2c(=O)n1N1CCN(Cc2ccccc2)CC1` [Compound 94, (S)-2,4-diamino-6-((1-(3-(4-benzylpiperazin-1-yl)-5-chloro-4-oxo-3,4-dihydroquinazolin-2-yl)propyl)amino)pyrimidine-5-carbonitrile], the 50% inhibitory concentration (IC50) in test [1] is 56 nM; in test [2], 32 nM; in test [3], 2.9 µM.
